From PMC4148173 (Journal of Medicinal Chemistry, 2014)

Experiments:
human D2LR = human D2LR (Homo sapiens, UniProt P14416); experiment: [125I]IABN displacement binding, HEK cell membranes expressing human D2LR
human D3R [1] = molecular target: T1, human D3R (Homo sapiens, UniProt P35462); experiment: [125I]IABN displacement binding, HEK cell membranes expressing human D3R
human D3R [2] = molecular target: T1, human D3R; experiment: β-Arrestin-2 recruitment assay; type: cell-based; conditions: for D3R IC50 ± SEM: inhibition of (+)-PD128907-induced arrestin translocation in U2OS cells expressing D3R; for selectivity ratio (D2R IC50)/(D3R IC50): β-arrestin-2 recruitment antagonist selectivity
human D3R [3] = molecular target: T1, human D3R; experiment: [35S]GTPγS binding assay, CHO-hD3 membranes; type: biochemical; conditions: for stimulation of [35S]GTPγS binding, D3R: agonist test; for inhibition of basal [35S]GTPγS binding at D3R: up to 1 μM concentration; for inhibition at 10 µM: read-out: inhibition of D3R basal [35S]GTPγS binding
human D2R = human D2R (Homo sapiens, UniProt P14416); experiment: [35S]GTPγS binding assay, CHO-hD2 membranes; type: biochemical; conditions: for stimulation of [35S]GTPγS binding, D2R: agonist test; for inhibition of basal [35S]GTPγS binding at D2R: up to 1 μM concentration
rats = conditions: cited from earlier work
human D2L receptors = human D2L receptors (Homo sapiens, UniProt P14416); experiment: β-Arrestin-2 recruitment assay; type: cell-based; conditions: standard agonist
human D2L receptors, sequence (P14416 whole entry): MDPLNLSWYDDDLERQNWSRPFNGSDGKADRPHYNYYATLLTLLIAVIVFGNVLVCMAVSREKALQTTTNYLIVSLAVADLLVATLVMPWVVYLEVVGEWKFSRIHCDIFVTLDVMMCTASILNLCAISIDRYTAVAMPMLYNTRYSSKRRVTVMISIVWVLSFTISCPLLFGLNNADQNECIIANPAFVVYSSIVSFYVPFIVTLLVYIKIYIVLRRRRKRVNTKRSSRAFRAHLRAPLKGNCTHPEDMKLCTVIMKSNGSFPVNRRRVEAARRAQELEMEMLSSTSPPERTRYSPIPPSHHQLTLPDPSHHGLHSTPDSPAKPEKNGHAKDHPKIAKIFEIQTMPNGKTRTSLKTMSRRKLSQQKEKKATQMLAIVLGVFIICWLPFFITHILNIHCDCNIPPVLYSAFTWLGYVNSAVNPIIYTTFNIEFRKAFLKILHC

T1 sequence (P35462 whole entry): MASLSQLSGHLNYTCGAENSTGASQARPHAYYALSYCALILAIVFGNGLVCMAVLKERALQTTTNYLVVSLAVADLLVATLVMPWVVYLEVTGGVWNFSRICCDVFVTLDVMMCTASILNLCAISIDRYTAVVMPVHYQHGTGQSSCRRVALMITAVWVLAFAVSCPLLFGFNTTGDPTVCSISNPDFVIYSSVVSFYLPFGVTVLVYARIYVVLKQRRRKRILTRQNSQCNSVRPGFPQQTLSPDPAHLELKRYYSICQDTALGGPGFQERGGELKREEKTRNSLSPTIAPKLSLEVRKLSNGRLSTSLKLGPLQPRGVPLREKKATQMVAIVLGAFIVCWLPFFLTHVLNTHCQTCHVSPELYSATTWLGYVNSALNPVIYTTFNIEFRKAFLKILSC
human D2R, sequence (P14416 whole entry): as the sequence (P14416 whole entry) above
human D2LR, sequence (P14416 whole entry): as above

COc1ccccc1N1CCN(CCCCNC(=O)c2cn3ccccc3n2)CC1 [Compound 7, N-(4-(4-(2-Methoxyphenyl)piperazin-1-yl)butyl)imidazo[1,2-a]pyridine-2-carboxamide]
higher affinity at D2R (human D2LR; compared to compound 6): ~10 fold
enhancement in affinity at the D3R (human D3R [1]; compared to compound 6): ~3 fold
D3R IC50 ± SEM (human D3R [2]): subnanomolar

O=C(NCCCCN1CCN(c2cccc(Cl)c2Cl)CC1)c1cn2ccccc2n1 [Compound 8, N-(4-(4-(2,3-Dichlorophenyl)piperazin-1-yl)butyl)imidazo[1,2-a]pyridine-2-carboxamide]
Kb (human D3R [3]): 0.0038 ± 0.0013 nM
stimulation of [35S]GTPγS binding, D3R (human D3R [3]): did not stimulate
inhibition of basal [35S]GTPγS binding at D3R (human D3R [3]): less than 30%
Kb (human D2R): 1.1 ± 0.2 nM
stimulation of [35S]GTPγS binding, D2R (human D2R): did not stimulate
inhibition of basal [35S]GTPγS binding at D2R (human D2R): less than 30%
D3R IC50 ± SEM (human D3R [2]): subnanomolar
selectivity ratio (D2R IC50)/(D3R IC50) (human D3R [2]): > 400

CC(C)(C)c1nc(N2CCN(CCCCNC(=O)c3cn4ccccc4n3)CC2)cc(C(F)(F)F)n1 [Compound 25, N-(4-(4-(2-(tert-Butyl)-6-(trifluoromethyl)pyrimidin-4-yl)piperazin-1-yl)butyl)imidazo[1,2-a]pyridine-2-carboxamide]
Kb (human D3R [3]): 1.3 ± 0.4 nM
stimulation of [35S]GTPγS binding, D3R (human D3R [3]): did not stimulate
inhibition at 10 µM (human D3R [3]): 40 to 60%
inhibition of basal [35S]GTPγS binding at D3R (human D3R [3]): less than 30%
cocaine self-administration, cocaine reward, cue-induced reinstatement of cocaine-seeking, cocaine-induced place preference (rats; rat models): significantly attenuating
effect on food reward or spontaneous locomotor activity (rats; rats, at doses decreasing cocaine effects): no effect
cocaine reward, cocaine seeking, preference for cocaine-associated environments, and cocaine induced locomotor activity (rats; rats): significant decreases
Kb (human D2R): 111 ± 25 nM
stimulation of [35S]GTPγS binding, D2R (human D2R): did not stimulate
inhibition of basal [35S]GTPγS binding at D2R (human D2R): less than 30%
selectivity ratio (D2R Ki/D3R Ki) (human D3R [1]; Table 1, binding selectivity): > 100
D3R IC50 ± SEM (human D3R [2]): subnanomolar
selectivity ratio (D2R IC50)/(D3R IC50) (human D3R [2]): > 400

CC(C)(C)c1nc(N2CCN(CCCCNC(=O)c3cc4ccccc4[nH]3)CC2)cc(C(F)(F)F)n1 [Compound 26, N-(4-(4-(2-(tert-Butyl)-6-(trifluoromethyl)pyrimidin-4-yl)piperazin-1-yl)butyl)-1H-indole-2-carboxamide]
lower binding potency at D2R (human D2LR; compared to compound 25): 1.8 fold
lower binding potency at D3R (human D3R [1]; compared to compound 25): 2.6 fold

CC(C)(C)c1nc(N2CCN(CCCCNC(=O)c3cn4ccncc4n3)CC2)cc(C(F)(F)F)n1 [Compound 30, N-(4-(4-(2-(tert-Butyl)-6-(trifluoromethyl)pyrimidin-4-yl)piperazin-1-yl)butyl)imidazo[1,2-a]pyrazine-2-carboxamide]
Kb (human D3R [3]): 0.33 ± 0.05 nM
stimulation of [35S]GTPγS binding, D3R (human D3R [3]): did not stimulate
inhibition at 10 µM (human D3R [3]): 40 to 60%
inhibition of basal [35S]GTPγS binding at D3R (human D3R [3]): less than 30%
Kb (human D2R): 25 ± 6 nM
stimulation of [35S]GTPγS binding, D2R (human D2R): did not stimulate
inhibition of basal [35S]GTPγS binding at D2R (human D2R): less than 30%

CC(C)(C)c1nc(N2CCN(CCCCNC(=O)[C@H]3CC[C@H](c4ccccc4)CC3)CC2)cc(C(F)(F)F)n1 [Compound 39, trans-N-(4-(4-(2-(tert-Butyl)-6-(trifluoromethyl)pyrimidin-4-yl)piperazin-1-yl)butyl)-4-phenylcyclohexanecarboxamide]
stimulation of [35S]GTPγS binding, D3R (human D3R [3]): did not stimulate
inhibition at 10 µM (human D3R [3]): 40 to 60%
inhibition of basal [35S]GTPγS binding at D3R (human D3R [3]): less than 30%
stimulation of [35S]GTPγS binding, D2R (human D2R): did not stimulate
inhibition of basal [35S]GTPγS binding at D2R (human D2R): less than 30%

CCCN1CCO[C@@H]2c3cc(O)ccc3OC[C@H]21 [PD128907, reference compound]
agonist EC80 dose, D3R (human D3R [2]; β-arrestin recruitment, standard agonist): 8 nM

CCCN1C[C@H](CSC)C[C@@H]2c3cccc4[nH]cc(c34)C[C@H]21 [pergolide]
agonist EC80 dose, D2R (human D2L receptors): 6 nM
